# Results from US9416141B2 (University of Washington through its Center for …, priority 2012, dated 2016).
# Structures can show the parent of a compound that is named as a salt.
# Test system: hair cells
# Assay: Hair cell toxicity assay in zebrafish (neomycin-induced hair cell death, DASPEI staining of neuromasts)
# Format: in vivo
# Conditions: Danio rerio; for Emax at 25 µM: maximum observed @ 25 μM test compound; for EC50: zebrafish larvae 5-7 dpf, 1 h pre-treatment, then 200 micromolar neomycin + test compound 30 min, read-out: HC50 (concentration that would produce 50% hair cell survival); for Emax at 2.8 µM: maximum observed @ 2.8 μM test compound; for Emax at 8.3 µM: maximum observed @ 8.3 μM test compound
# Summary of the method: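 Hair cell survival, as % of untreated controls, came from DASPEI scoring (0-2 each, ten neuromasts on one side) in 5-7 dpf larvae. These had 1 h compound pre-exposure (0.010-25 μM), then 200 μM neomycin with compound for 30 min. HCmax is peak protection; HC50 interpolated between flanking concentrations only when ≥50% survive.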
# [1] = 200 micromolar neomycin, read-out: Max HC Protection (HCmax, % hair cell survival)
SMILES,Emax at 25 µM [1],EC50,other results
"CCN1CCc2c(sc(NC(=O)Nc3ccc4c(c3)CCCC4)c2C(N)=O)C1 [Example 227, 6-ethyl-2-{[(5,6,7,8-tetrahydronaphthalen-2-yl)carbamoyl]amino}-4H,5H,6H,7H-thieno[2,3-c]pyridine-3-carboxamide]",80%,1000 to 10000 nM,–
"CC(C)(C)OC(=O)NCCCN1CCc2c(sc(NC(=O)Nc3ccc(C(=O)c4ccccc4)cc3)c2C(N)=O)C1 [Example 208, tert-Butyl N-[3-(2-{[(4-benzoylphenyl)carbamoyl]amino}-3-carbamoyl-4H,5H,6H,7H-thieno[2,3-c]pyridin-6-yl)propyl]carbamate]",–,1000 to 10000 nM,Emax at 2.8 µM [1]: 56%
"C[N+](C)(C)C1CCc2c(sc(NC(=O)Nc3ccc(Cl)cc3)c2C(N)=O)C1 (stereo not drawn) [Example 169, 3-Carbamoyl-2-[3-(4-chlorophenyl)ureido]-N,N,N-trimethyl-4,5,6,7-tetrahydrobenzo[b]thiophen-6-aminium iodide]",101%,1000 to 10000 nM,–
"CCN1CCc2c(sc(NC=O)c2C(N)=O)C1 [Example 108, 6-ethyl-2-formamido-4,5,6,7-tetrahydrothieno[2,3-c]pyridine-3-carboxamide hydrochloride]",–,–,"Emax at 0.9 µM (maximum observed @ 0.9 μM test compound, 200 micromolar neomycin, read-out: Max HC Protection (HCmax, % hair cell survival)): 13%"
"CCN1CCc2c(sc(N(CC)C(=O)Nc3ccc(Cl)cc3)c2C(N)=O)C1 [Example 113, 2-[3-(4-chlorophenyl)-1-ethylureido]-6-ethyl-4,5,6,7-tetrahydrothieno[2,3-c]pyridine-3-carboxamide hydrochloride]",–,–,Emax at 2.8 µM [1]: 12%
"CCN1CCc2c(sc(NC(=O)Nc3ccc(Cc4ccccc4)cc3)c2C(N)=O)C1 [Example 226, 2-{[(4-benzylphenyl)carbamoyl]amino}-6-ethyl-4H,5H,6H,7H-thieno[2,3-c]pyridine-3-carboxamide]",–,1000 to 10000 nM,Emax at 8.3 µM [1]: 68%
"CN(C)C(=O)CC[N+]1(C)CCc2c(sc(NC(=O)Nc3ccc(Cl)cc3)c2C(N)=O)C1 (stereo not drawn) [Example 194, 3-Carbamoyl-2-[3-(4-chlorophenyl)ureido]-6-[3-(dimethylamino)-3-oxopropyl]-6-methyl-4,5,6,7-tetrahydrothieno[2,3-c]pyridin-6-ium chloride]",–,–,Emax at 2.8 µM [1]: 36%
"C[N+]1(CCCC(N)=O)CCc2c(sc(NC(=O)Nc3ccc(Cl)cc3)c2C(N)=O)C1 (stereo not drawn) [Example 167, 6-(4-Amino-4-oxobutyl)-3-carbamoyl-2-[3-(4-chlorophenyl)ureido]-6-methyl-4,5,6,7-tetrahydrothieno[2,3-c]pyridin-6-ium trifluoroacetate]",–,–,Emax at 2.8 µM [1]: 21%
"C[N+]1(CCC(N)=O)CCc2c(sc(NC(=O)Nc3ccc(Cl)cc3)c2C(N)=O)C1 (stereo not drawn) [Example 157, 6-(3-Amino-3-oxopropyl)-3-carbamoyl-2-[3-(4-chlorophenyl)ureido]-6-methyl-4,5,6,7-tetrahydrothieno[2,3-c]pyridin-6-ium iodide]",94%,1000 to 10000 nM,–
"CCN1CCc2c(sc(NC(=O)Nc3cncc4ccccc34)c2C(N)=O)C1 [Example 81, 6-Ethyl-2-[3-(isoquinolin-4-yl)ureido]-4,5,6,7-tetrahydrothieno[2,3-c]pyridine-3-carboxamide dihydrochloride]",–,–,Emax at 8.3 µM [1]: 32%
"CC(C)(C)OC(=O)C1CC([N+]2(C)CCc3c(sc(NC(=O)Nc4ccc(Cl)cc4)c3C(N)=O)C2)C1 (stereo not drawn) [Example 163, 6-[3-(tert-Butoxycarbonyl)cyclobutyl]-3-carbamoyl-2-[3-(4-chlorophenyl)ureido]-6-methyl-4,5,6,7-tetrahydrothieno[2,3-c]pyridin-6-ium iodide]",–,< 1000 nM,Emax at 8.3 µM [1]: 88%
"CCN1CCc2c(sc(NC(=O)Nc3ccc4cc(F)ccc4c3)c2C(N)=O)C1 [Example 93, 6-ethyl-2-[3-(6-fluoronaphthalen-2-yl)ureido]-4,5,6,7-tetrahydrothieno[2,3-c]pyridine-3-carboxamide hydrochloride]",97%,1000 to 10000 nM,–
"CCN1CCc2c(sc(NC(=O)Nc3ccc(Cl)cc3)c2-c2nnco2)C1 [Example 104, 1-(4-chlorophenyl)-3-[6-ethyl-3-(1,3,4-oxadiazol-2-yl)-4,5,6,7-tetrahydrothieno[2,3-c]pyridin-2-yl]urea hydrochloride]",0%,–,–
"NC(=O)c1c(NC(=O)Nc2ccc(Cl)cc2)sc2c1CCN(CCCNC(=O)CCc1cccnc1)C2 [Example 211, 2-{[(4-chlorophenyl)carbamoyl]amino}-6-{3-[3-(pyridin-3-yl)propanamido]propyl}-4H,5H,6H,7H-thieno[2,3-c]pyridine-3-carboxamide]",95%,< 1000 nM,–
"NC(=O)c1c(NC(=O)Nc2ccc(Cl)cc2)sc2c1CC[N+](CCCO)(CCCO)C2 [Example 201, 3-Carbamoyl-2-[3-(4-chlorophenyl)ureido]-6,6-bis(3-hydroxypropyl)-4,5,6,7-tetrahydrothieno[2,3-c]pyridin-6-ium chloride]",–,< 1000 nM,"Emax at 2.5 µM (maximum observed @ 2.5 μM test compound, 200 micromolar neomycin, read-out: Max HC Protection (HCmax, % hair cell survival)): 102%"
"CCN1CCc2c(sc(NC(=O)Nc3ccc4ccccc4c3)c2C(N)=O)C1 [Example 223, 6-ethyl-2-{[(naphthalen-2-yl)carbamoyl]amino}-4H,5H,6H,7H-thieno[2,3-c]pyridine-3-carboxamide]",104%,1000 to 10000 nM,–
"CC(C)(C)OC(=O)CN1CCc2c(sc(NC(=O)Nc3ccc(Cl)cc3)c2C(N)=O)C1 [Example 58, tert-butyl 2-{3-carbamoyl-2-[3-(4-chlorophenyl)ureido]-4,5-dihydrothieno[2,3-c]pyridin-6(7H)-yl}acetate]",–,–,Emax at 2.8 µM [1]: 7%
"NC(=O)c1c(NC(=O)Nc2ccc(Cl)cc2)sc2c1CCN(CC1CCC1)C2 [Example 12, 2-[3-(4-Chlorophenyl)ureido]-6-(cyclobutylmethyl)-4,5,6,7-tetrahydrothieno[2,3-c]pyridine-3-carboxamide hydrochloride]",–,1000 to 10000 nM,Emax at 8.3 µM [1]: 73%
"NC(=O)c1c(NC(=O)Nc2ccc(Cl)cc2)sc2c1CCN(CCCNC(=O)CCc1ccccc1)C2 [Example 210, 2-{[(4-chlorophenyl)carbamoyl]amino}-6-[3-(3-phenylpropanamido)propyl]-4H,5H,6H,7H-thieno[2,3-c]pyridine-3-carboxamide]",99%,< 1000 nM,–
"C[N+]1(CC2CCC2)C2CCC1c1sc(NC(=O)Nc3ccc(Cl)cc3)c(C(N)=O)c1C2 (racemic) [Example 189, (+/−)-3-Carbamoyl-2-[3-(4-chlorophenyl)ureido]-9-(cyclobutylmethyl)-9-methyl-5,6,7,8-tetrahydro-4H-thienocyclohepten-5,8-iminium trifluoroacetate]",96%,1000 to 10000 nM,–
"CN(C)C1CCc2c(sc(NC(=O)Nc3ccc(Cl)cc3)c2C(N)=O)C1 (stereo not drawn) [Example 42, 2-[3-(4-Chlorophenyl)ureido]-6-(dimethylamino)-4,5,6,7-tetrahydrobenzo[b]thiophene-3-carboxamide hydrochloride]",90%,1000 to 10000 nM,–
"CC(C)(C)C[N+]1(C)CCc2c(sc(NC(=O)Nc3ccc4ccccc4c3)c2C(N)=O)C1 (stereo not drawn) [Example 193, 3-Carbamoyl-6-methyl-2-(3-naphthalen-2-ylureido)-6-neopentyl-4,5,6,7-tetrahydrothieno[2,3-c]pyridin-6-ium trifluoroacetate]",98%,< 1000 nM,–
"NC(=O)c1c(NC(=O)Nc2ccc(Cl)cc2)sc2c1CC1CCC2N1CC1CCCCC1 (racemic) [Example 131, (+/−)-2-[3-(4-chlorophenyl)ureido]-9-(cyclohexylmethyl)-5,6,7,8-tetrahydro-4H-5,8-epiminocyclohepta[b]thiophene-3-carboxamide hydrochloride]",–,< 1000 nM,Emax at 2.8 µM [1]: 88%
"CCN1CCc2c(sc(NC(=O)Nc3ccc(C(F)(F)F)cc3)c2C(N)=O)C1 [Example 221, 6-ethyl-2-({[4-(trifluoromethyl)phenyl]carbamoyl}amino)-4H,5H,6H,7H-thieno[2,3-c]pyridine-3-carboxamide]",68%,1000 to 10000 nM,–
"CC[N+]1(C)C2CCC1c1sc(NC(=O)Nc3ccc(Cl)cc3)c(C(N)=O)c1C2 (racemic) [Example 187, (+/−)-3-Carbamoyl-2-[3-(4-chlorophenyl)ureido]-9-ethyl-9-methyl-5,6,7,8-tetrahydro-4H-thienocyclohepten-5,8-iminium chloride]",72%,1000 to 10000 nM,–
"NC(=O)c1c(NC(=O)Nc2ccc(Cl)cc2)sc2c1CCN(C1COC1)C2 [Example 6, 2-[3-(4-Chlorophenyl)ureido]-6-(oxetan-3-yl)-4,5,6,7-tetrahydrothieno[2,3-c]pyridine-3-carboxamide hydrochloride]",72%,1000 to 10000 nM,–
"CCN1CCc2c(sc(NC(=O)Nc3cccc(C#N)c3)c2C(N)=O)C1 [Example 73, 2-[3-(3-Cyanophenyl)ureido]-6-ethyl-4,5,6,7-tetrahydrothieno[2,3-c]pyridine-3-carboxamide hydrochloride]",51%,> 10000 nM,–
"CC[N+]1(CCCC(=O)OC(C)(C)C)CCc2c(sc(NC(=O)Nc3ccc(Cl)cc3)c2C(N)=O)C1 (stereo not drawn) [Example 198, 6-[4-(tert-Butoxy)-4-oxobutyl]-3-carbamoyl-2-[3-(4-chlorophenyl)ureido]-6-ethyl-4,5,6,7-tetrahydrothieno[2,3-c]pyridin-6-ium trifluoroacetate]",–,< 1000 nM,Emax at 2.8 µM [1]: 89%
"CC(C)(C)C[N+]1(C)CCc2c(sc(NC(=O)Nc3ccc(Cl)cc3)c2C(N)=O)C1 (stereo not drawn) [Example 171, 3-Carbamoyl-2-[3-(4-chlorophenyl)ureido]-6-methyl-6-neopentyl-4,5,6,7-tetrahydrothieno[2,3-c]pyridin-6-ium iodide]",–,< 1000 nM,Emax at 2.8 µM [1]: 92%
